System: HCV genotype 1a replicon
Test: HCV genotype 1a replicon assay (NS3 protease activity readout)
Type: cell-based, hepatitis C virus
Details: for Genotype 1a: HCV genotype 1a replicon; for EC50: Hepatitis C virus, read-out: Genotype 1a, HCV genotype 1a replicon
Method: Assay 2: HCV Genotype 1a Replicon Assay
The HCV genotype 1a replicon cell line was obtained from Apath LLC (APC89; Huh7.5 cell background). This subgenomic replicon contains the N-terminus of the HCV core protein fused to the neomycin-resistance selectable marker. The EMCV IRES lies downstream and drives expression of the non-structural proteins NS3-NS5B. Compound potencies were determined using the NS3-specific protease activity in lysates as a measurement of compound inhibition of replicon levels.
Cells were grown at 37° C. in a 5% CO2 humidified incubator in DMEM (Invitrogen) with 10% FBS (HyClone), 1×NEAA (Invitrogen), 1× Pen-Strep (Invitrogen), and 850 μg/mL G418 (Invitrogen). On day 1 of the assay, cells were plated at 15,000 cells/well in black 96-well tissue culture plates (Costar) in 200 μL media lacking G418. Four hours later, once the cells had adhered, the media was removed and replaced with media (no G418) containing dose-responses of test compounds. Compounds were initially diluted in DMSO and then diluted another 200× in media to bring the final DMSO concentration down to 0.5%. The cells were incubated with test compounds for 48 or 72 hours. At the end of the incubation period, media and compound were removed from the plates.
To determine the NS3-specific protease activity in lysates, the cells were lysed at room temperature in 50 μL/well of 50 mM Hepes pH 7.5, 150 mM NaCl, 15% Glycerol, 0.15% Triton X-100, 10 mM DTT for 20 minutes with shaking. 50 μL of an NS3/4a protease-specific FRET substrate (Anaspec RET S1 Cat#22991) was then added to the wells at a final concentration of 15 μM. The plates were incubated at 37° C. for 20 minutes, which corresponds to a timepoint at which the protease activity is still in the linear phase. Protease activity was determined by measuring fluorescence (Excitation: 340 nm; Emission: 509 nm).
To analyze the data, the fluorescence was plotted vs. the compound concentration, and EC50 values were determined from a 4-parameter robust fit model using GraphPad Prism software.

Structure (SMILES)	Genotype 1a	EC50
COC(=O)N[C@H](C(=O)N1C[C@@H](OC)C[C@H]1c1nc(-c2ccc(-c3cc(Cl)c(NC(=O)c4ccc(N5CCN(C(=O)C(C)(C)C)C[C@H]5C)nc4)cc3C(F)(F)F)cc2)c[nH]1)C1CCCCC1 [Example 19-17]	C (C represents pEC50 between and 9 and about 10, (EC50 between 1 nM and 0.1 nM))	–
COC(=O)NC(C(=O)N1CC(C)CC1c1nc(-c2ccc(-c3ccc(NC(=O)c4ccc(N5CCN(C(=O)C(C)(C)C)CC5C)nc4)cc3OC(F)(F)F)cc2)c[nH]1)C(C)OC (centres unmarked) [Example 13-14]	D (D represents pEC50>10 (EC50<0.1 nM))	–
COC(=O)N[C@H](C(=O)N1C[C@@H](SC)C[C@H]1c1nc(-c2ccc(-c3ccc(C(=O)Nc4ccc(N5CCN(C(=O)C(C)(C)C)C[C@H]5C)nc4)cc3OC(F)(F)F)cc2)c[nH]1)C(C)C [Example 6-15]	–	0.1 to 1 nM
CNC(=O)N1CCN(c2ccc(C(=O)Nc3ccc(-c4ccc(-c5c[nH]c([C@@H]6C[C@H](O)CN6C(=O)[C@@H](NC(=O)OC)C(C)C)n5)cc4)cc3)cn2)[C@H](C)C1 [Example 26-3]	B (B represents pEC50 between 8 and 9 (EC50 between 1 and 10 nM))	–
COC(=O)N[C@H](C(=O)N1C[C@@H](C)C[C@H]1c1nc(-c2ccc(-c3cc(F)c(C(=O)Nc4ccc(N5CCN(C(=O)C(C)(C)C)C[C@H]5C)nc4)cc3OC(F)(F)F)cc2)c[nH]1)C(C)C [Example 4-41]	C (C represents pEC50 between and 9 and about 10, (EC50 between 1 nM and 0.1 nM))	–
COC(=O)N[C@H](C(=O)N1C[C@@H](OC)C[C@H]1c1nc(-c2ccc(-c3cc(Cl)c(C(=O)Nc4ccc(N5CCN(C(=O)C(C)(C)CO)C[C@H]5C)nc4)cc3OC(F)(F)F)cc2)c[nH]1)C1CCOCC1 [Example 22-17]	D (D represents pEC50>10 (EC50<0.1 nM))	–
COC(=O)NC(C(=O)N1C[C@@H](C)C[C@H]1c1nc(-c2ccc(-c3cc(Cl)c(NC(=O)c4ccc(N5CCN(C(=O)C(C)(C)C)C[C@H]5C)nc4)cc3OC(F)(F)F)cc2)c[nH]1)C1COC1 (some centres unmarked) [Example 13-44]	–	0.1 to 1 nM
COC(=O)N[C@H](C(=O)N1C[C@@H](N(C)C)C[C@H]1c1nc(-c2ccc(-c3cc(Cl)c(NC(=O)c4ccc(N5CCN(C(=O)C(C)(C)C)C[C@H]5C)nc4)cc3OC(F)(F)F)cc2)c[nH]1)C(C)C [Example 2-7]	C (C represents pEC50 between and 9 and about 10, (EC50 between 1 nM and 0.1 nM))	–
CNC(=O)N1C[C@@H](C)N(c2ccc(C(=O)Nc3cc(OC(F)(F)F)c(-c4ccc(-c5c[nH]c([C@@H]6C[C@H](OC)CN6C(=O)[C@@H](NC(=O)OC)C6CCOCC6)n5)cc4)cc3Cl)cn2)C[C@@H]1C [Example 28-8]	D (D represents pEC50>10 (EC50<0.1 nM))	–
COC(=O)N[C@H](C(=O)N1C[C@@H](C)C[C@H]1c1nc(-c2ccc(-c3cc(Cl)c(NC(=O)c4ccc(N5CCN(C(C)=O)C[C@H]5C)nc4)cc3OC(F)(F)F)cc2)c[nH]1)C(C)C [Example 1-66]	C (C represents pEC50 between and 9 and about 10, (EC50 between 1 nM and 0.1 nM))	–
CNC(=O)N1CCN(c2ccc(C(=O)Nc3cc(OC(F)(F)F)c(-c4ccc(-c5c[nH]c([C@@H]6C[C@H](OC)CN6C(=O)[C@@H](NC(=O)OC)C6CCOCC6)n5)cc4)cc3Cl)cn2)[C@H](C)C1 [Example 28-13]	D (D represents pEC50>10 (EC50<0.1 nM))	–
COC(=O)N[C@H](C(=O)N1C[C@H](C)C[C@H]1c1nc(-c2ccc(-c3cc(Cl)c(C(=O)Nc4ccc(N5CCN(C(=O)C(C)(C)C)C[C@H]5C)nc4)cc3OC(F)(F)F)cc2)c[nH]1)C1CCOCC1 [24-5]	C (C represents pEC50 between and 9 and about 10, (EC50 between 1 nM and 0.1 nM))	–
COC(=O)N[C@H](C(=O)N1C[C@@H](C)C[C@H]1c1nc(-c2ccc(-c3cc(Cl)c(NC(=O)c4ccc(N5CCN(C(=O)C(C)(C)C)C[C@H]5C)nc4)cc3OC(F)(F)F)cc2)c[nH]1)[C@H](C)O [Example 13-6]	–	< 0.1 nM
COC(=O)CC(=O)NCC(C)(C)C(=O)N1CCN(c2ccc(C(=O)Nc3cc(OC(F)(F)F)c(-c4ccc(-c5c[nH]c([C@@H]6C[C@H](C)CN6C(=O)[C@@H](NC(=O)OC)C(C)C)n5)cc4)cc3Cl)cn2)[C@H](C)C1 [Example 12-33]	–	0.1 to 1 nM
COC(=O)N[C@H](C(=O)N1C[C@@H](C)C[C@H]1c1nc(-c2ccc(-c3cc(Cl)c(NC(=O)c4ccc(N5CCN(C(=O)C(C)(C)CO)C[C@H]5C)nc4)cc3OC(F)(F)F)cc2)c(CO)[nH]1)C(C)C [Example 5-13]	–	< 0.1 nM
COC(=O)N[C@H](C(=O)N1C[C@@H](C)C[C@H]1c1nc(-c2ccc(-c3cc(Cl)c(NC(=O)c4ccc(N5CCN(C(=O)C6(C)CC6)C[C@H]5C)nc4)cc3OC(F)(F)F)cc2)c[nH]1)C(C)C [Example 1-80]	C (C represents pEC50 between and 9 and about 10, (EC50 between 1 nM and 0.1 nM))	–
COCC(=O)N1CCC[C@@]1(C)C(=O)N1CCN(c2ccc(C(=O)Nc3ccc(-c4ccc(-c5c[nH]c([C@@H]6CC7(CN6C(=O)[C@@H](NC(=O)OC)C(C)C)OCCO7)n5)cc4)c(OC(F)(F)F)c3)cn2)[C@H](C)C1 [Example 5-2]	–	< 0.1 nM
CCCC(=O)N1CCN(c2ccc(C(=O)Nc3cc(OC(F)(F)F)c(-c4ccc(-c5c[nH]c([C@@H]6C[C@H](C)CN6C(=O)[C@@H](NC(=O)OC)C(C)C)n5)cc4)cc3Cl)cn2)[C@H](C)C1 [Example 1-68]	C (C represents pEC50 between and 9 and about 10, (EC50 between 1 nM and 0.1 nM))	–
COC(=O)N[C@H](C(=O)N1C[C@@H](C)C[C@H]1c1nc(-c2ccc(-c3ccc(C(=O)Nc4ccc(N5C[C@H](C)N(C(=O)C(C)(C)C)C[C@H]5C)nc4)cc3OC(F)(F)F)cc2)c[nH]1)C(C)C [Example 4-15]	D (D represents pEC50>10 (EC50<0.1 nM))	–
COC(=O)N[C@H](C(=O)N1C[C@@H](C)C[C@H]1c1nc(-c2ccc(-c3ccc(C(=O)Nc4ccc(N5C[C@H](C)N(C(=O)C6CC6(F)F)C[C@H]5C)nc4)cc3OC(F)(F)F)cc2)c[nH]1)C(C)C (some centres unmarked) [Example 4-22]	C (C represents pEC50 between and 9 and about 10, (EC50 between 1 nM and 0.1 nM))	–
CCN(CC)C(C(=O)N1C[C@@H](C)C[C@H]1c1nc(-c2ccc(-c3cc(Cl)c(NC(=O)c4ccc(N5C[C@H](C)N(C(=O)NC)C[C@H]5C)nc4)cc3OC(F)(F)F)cc2)c[nH]1)c1ccccc1 (some centres unmarked) [Example 7-12]	–	< 0.1 nM
COC(=O)N[C@H](C(=O)N1C[C@@H](OC)C[C@H]1c1nc(-c2ccc(-c3cc(Cl)c(NC(=O)c4ccc(N5CCN(C(=O)C(C)(C)C)C[C@H]5C)nc4)cc3C(F)(F)F)cc2)c[nH]1)C1CCOCC1 [Example 19-16]	D (D represents pEC50>10 (EC50<0.1 nM))	–
COC(=O)N[C@H](C(=O)N1C[C@@H](C)C[C@H]1c1nc(-c2ccc(-c3cc(Cl)c(NC(=O)c4ccc(N5CCN(C(=O)C6(C(F)(F)F)CC6)C[C@H]5C)nc4)cc3OC(F)(F)F)cc2)c[nH]1)C(C)C [Example 1-99]	D (D represents pEC50>10 (EC50<0.1 nM))	–
COC(=O)N[C@H](C(=O)N1C[C@@H](Oc2ccn(C)n2)C[C@H]1c1nc(-c2ccc(-c3cc(Cl)c(NC(=O)c4ccc(N5CCN(C(=O)C(C)(C)C)C[C@H]5C)nc4)cc3OC(F)(F)F)cc2)c[nH]1)C(C)C [Example 15-2]	–	0.1 to 1 nM
COC(=O)N[C@H](C(=O)N1C[C@@H](C)C[C@H]1c1nc(-c2ccc(-c3cc(Cl)c(NC(=O)c4ccc(N5CCN(C(=O)C(C)(C)C)C[C@H]5C)nc4)cc3OC(F)(F)F)cc2)c[nH]1)C1CCCCC1 [Example 13-39]	–	1 to 10 nM
COC(=O)N[C@H](C(=O)N1C[C@@H](C)C[C@H]1c1nc(-c2ccc(-c3cc(Cl)c(NC(=O)c4ccc(N5CCN(C(=O)NN(C)C)C[C@H]5C)nc4)cc3OC(F)(F)F)cc2)c[nH]1)C(C)C [Example 1-94]	D (D represents pEC50>10 (EC50<0.1 nM))	–
COC(=O)NCC(C)(C)C(=O)N1CCN(c2ccc(C(=O)Nc3cc(OC(F)(F)F)c(-c4ccc(-c5c[nH]c([C@@H]6C[C@H](C)CN6C(=O)[C@@H](NC(=O)OC)C(C)C)n5)cc4)cc3Cl)cn2)[C@H](C)C1 [Example 12-39]	–	< 0.1 nM
COC(=O)N[C@H](C(=O)N1[C@@H]2C[C@@H]2C[C@H]1c1nc(-c2ccc(-c3ccc(C(=O)Nc4ccc(N5CCN(C(=O)C(C)(C)C)C[C@H]5C)nc4)cc3OC(F)(F)F)cc2)c(Cl)[nH]1)C(C)C [Example 9-1]	–	0.1 to 1 nM
COC(=O)NC(C(=O)N1C[C@@H](C)C[C@H]1c1nc(-c2ccc(-c3cc(Cl)c(C(=O)Nc4ccc(N5CCN(C(=O)C(C)(C)C)C[C@H]5C)nc4)cc3OC(F)(F)F)cc2)c[nH]1)C1CCCCC1 (some centres unmarked) [Example 23-3]	–	0.1 to 1 nM

Source: US9212168B2 (priority 2011, dated 2015)
